Patent US20050208496A1, “Methods of testing for bronchial asthma or chronic obstructive pulmonary disease” (Genox Research, Inc., priority 2002, published 2005)

Test system: respiratory epithelial cells
Conditions: lot 2 Day 7 AI

## IL-13: human IL-13 (Peprotech, Inc.) added to the medium at 50 ng/mL to stimulate respiratory epithelial cells
  AI770116 (70124_at) expression change: −5.1
  AI798733 (64163_at) expression change: −3.3
  AI829641 (84270_at) expression change: −39.5
  AI917602 (49985_at) expression change: −4.1
  AI923984 33546_at expression change: −4.4
  AI948584 48086_at expression change: −13.1
  AI971023 48539_at expression change: −5.3
  AI984780 (52384_s_at) expression change: −4
  AL040936 (45684_at) expression change: −4.5
  AQP5 32909_at expression change: −4.2
  ARHGEF4 36524_at expression change: −6.6
  ARHV (82231_at) expression change: −4
  AW022213 (79520_at) expression change: −5.4
  AW025596 52634_at expression change: −9
  AW025596 52637_g_at expression change: −20.6
  B4GALT5 56373_at expression change: −2.5
  BPGM (51261_at) expression change: −2.4
  CBLB 514_at expression change: −3.2
  CBLB 35632_at expression change: −2.1
  COL12A1 (44730_at) expression change: −6.8
  CRABP-II 1057_at expression change: −12.7
  CRABP-II 41783_at expression change: −11.3
  Clorf28 50075_at expression change: −5.7
  DHCR24 (74557_s_at) expression change: −6.8
  DKFZp434K1210 44682_at expression change: −2.4
  DREV1 (63813_at) expression change: −2.1
  DSC3 (79615_at) expression change: −2.4
  DSC3a, b 47119_at expression change: −2.7
  DSC3a, b 79615_at expression change: −2.4
  EIF4EBP1 (54152_at) expression change: −2.7
  EVPK 39569_at expression change: −2.7
  FKBP5 (46271_at) expression change: −21.2
  FLJ10298 (62490_f_at) expression change: −5.4
  FLJ10718 52072_at expression change: −8.7
  FLJ12541 43546_at expression change: −7.4
  FLJ20048 (49196_at) expression change: −2
  FLJ20373 54030_at expression change: −1.7
  FLJ20500 43853_at expression change: −2.4
  FLJ23309 45563_f_at expression change: −2.4
  FLJ23516 47534_at expression change: −3.2
  GABRP 40339_at expression change: −28
  GAS41 (64121_at) expression change: −2
  GJA1 32531_at expression change: −5.5
  GK (61873_at) expression change: −2.1
  GPD2 42720_at expression change: −2.8
  GSTA3 58023 at expression change: −9.1
  HEY1 44783_s_at expression change: −9.2
  HIN-1 (46200_at) expression change: −38.7
  HSPC195 44705_at expression change: −5.1
  ID1 36619_r_at expression change: −2.5
  IL20RA 42969_at expression change: −2.9
  IVL 36355_at expression change: −10.6
  K1IAA1102 (64345_s_at) expression change: −4.9
  KCNMA1 (47575_g_at) expression change: −7
  KCNMA1 (53796_at) expression change: −6.1
  KIAA0878 (48793_at) expression change: −2
  KIAA1376 (62972_at) expression change: −3.9
  KIAA1376 (64047_at) expression change: −4.2
  KIAA1547 58531_g_at expression change: −2.6
  KLF7 (42769_at) expression change: −4.7
  KRT6B (62998_at) expression change: −5.5
  LCE 45605_at expression change: −2.6
  LMO4 1452_at expression change: −3.9
  LOC51297 (49616_at) expression change: −24.3
  LOC51297 (55440_at) expression change: −33.7
  LOC51297 (55442_g_at) expression change: −33.7
  LOC51316 (63342_at) expression change: −5
  LOC55893 (64071_at) expression change: −2.6
  LOC129642 (42065_at) expression change: −4.9
  LOC129642 (58288_at) expression change: −4.5
  LOC131177 (43849_s_at) expression change: −13.3
  LOC131177 (45394_s_at) expression change: −7.1
  MGC12536 46924_at expression change: −3.1
  MGC14128 55924_at expression change: −4.1
  MGC14128 (51669_r_at) expression change: −5
  MGC14597 (46030_at) expression change: −5.4
  MGC16207 43412_s_at expression change: −2.8
  MGC16207 (65876_at) expression change: −3.4
  N52554 47432_at expression change: −1.7
  N71183 52473_at expression change: −3
  PR01489 57777_at expression change: −4.5
  PSCA (63958_at) expression change: −9.8
  RGC32 (57044_s_at) expression change: −2.4
  RIN1 1778_g_at expression change: −7.5
  SCNN1B 39682_at expression change: −15
  SCYB14 (65823_at) expression change: −2.5
  SEMA4B (46709_at) expression change: −2.5
  SERPINA3 (75248_at) expression change: −46.4
  SLC11A3 (45826_at) expression change: −3.8
  SLC34A2 (48048_at) expression change: −4.3
  SPON2 52576_s_at expression change: −5.8
  SPRR1B 37160_at expression change: −2.8
  STEAP 40297_at expression change: −3.7
  T52027 (63150_at) expression change: −3.5
  TGFBI (68339_at) expression change: −4.9
  TNFAIP2 (74633_at) expression change: −4.2
  TNNT1 36113_s_at expression change: −12.2
  TNRC3 41246_at expression change: −5
  TPM1 36790_at expression change: −4.8
  TPM1 36791_g_at expression change: −6
  TPM1 36792_at expression change: −6.3
  UCP2 37591_at expression change: −45.5
  UGB 39220_at expression change: −62.8
  VEGFC 1934_s_at expression change: −4.3
  VIM 34091_s_at expression change: −11.6
  W55956 46700_at expression change: −2.7
  W72331 49486 at expression change: −11.4
